Tests used:
BAEC [1] = assay: Toxicity: MTT and active caspase-3 assays; format: cell-based, bovine; conditions: MTT 72 h and active caspase-3 24 h, staurosporine 1.0-1.4 μM positive control
Description: Figure 2 The effect of compounds 1 and 2 on BAEC viability. The cytotoxic effect was determined using (A) The MTT assay; cells (7.5 × 10^3) were incubated with the test compounds or with staurosporine (1.4 μM) an inducer of active caspase-3 and of apoptosis for 72 h and MTT added. The absorbance was read at 570 nm. (B) Active-caspase-3 apoptosis assay: cells (4.0 × 10^4/ml) were incubated with the test compounds or with staurosporine (1.0 μM, 24 h) and stained with anti-active caspase-3 as described below. Experiments were performed in triplicate. Representative immunofluorescence photomicrographs for BAEC were taken as described below. A group of apoptotic cells are highlighted in II.
Stilbene glycoside toxicity was determined using the MTT and active caspase-3 assays. BAECs or HDMECs (7.5 × 10^3) were seeded in a 96 well plate and incubated for 4 h to allow cell adhesion. The test compound or staurosporine (1 μM), an inducer of active caspase-3 and therefore of apoptosis was added to the wells. Control cells were treated with PBS and the plate was incubated at room temperature for 72 hours. MTT reagent (10 μl) was added followed by incubation at room temperature for 2–4 h. When a purple precipitate was visible, detergent reagent (100 μl) was added to the plates and incubated at room temperature for 2 h in the dark. Absorbance was measured at 570 nm using a microplate reader. […]

HDMEC [2] = assay: Toxicity: MTT and active caspase-3 assays; format: cell-based, human; conditions: HDMEC; MTT 72 h and active caspase-3 24 h; staurosporine positive control
Description: Stilbene glycoside toxicity was determined using the MTT and active caspase-3 assays. BAECs or HDMECs (7.5 × 10^3) were seeded in a 96 well plate and incubated for 4 h to allow cell adhesion. The test compound or staurosporine (1 μM), an inducer of active caspase-3 and therefore of apoptosis was added to the wells. Control cells were treated with PBS and the plate was incubated at room temperature for 72 hours. MTT reagent (10 μl) was added followed by incubation at room temperature for 2–4 h. When a purple precipitate was visible, detergent reagent (100 μl) was added to the plates and incubated at room temperature for 2 h in the dark. Absorbance was measured at 570 nm using a microplate reader.
In the apoptosis assay, HDMECs or BAEC (4 × 10^4/ml) in complete medium were added to the chambers slide and allowed to adhere for 24 h. The test compound (X μM) or staurosporine (1 μM) were added to all wells except control (PBS) and incubated for 24 hours. Wells treated with staurosporine were immediately washed (PBS) and fixed (4% paraformaldehyde) when cell morphology became round (2–4 h). After washing and fixing, cells were permeablized (0.1% Triton X-100; 10 min), washed (× 5~5 min each), air dried and blocked with 1% BSA in 1:50 TBS-Tween for 1 h at room temperature. Cells were incubated with goat anti-active caspase-3 (R&D system, UK; 1% BSA in TBS-Tween) for 1 h. […]

BAEC [3] = assay: FGF-2-induced tube formation in Matrigel; format: cell-based, bovine; conditions: FGF-2 25 ng/ml
Description: (§1) Cells (1.0 × 10^6/ml) were mixed with an equal volume of Matrigel (Becton -Dickinson, Oxford, UK; prepared according to the supplier's instructions) at 4°C. Aliquots (80 μl) were added to the wells of a 48-well plate and allowed to polymerise (1 h) then 500 μl of 15% FCS containing FGF-2 (25 ng/ml; or other growth factors), with or without test compounds was added. The cells were incubated for 24 h at 37°C then fixed in 4% paraformaldehyde (5 min), washed in cold ethanol and the plate air dried. Cells were stained with Geimsa (30 s), air dried and photographed. Ten random fields were selected and the number of closed tubes counted.

HDMEC [4] = assay: FGF-2-induced tube formation in Matrigel; format: cell-based, human; conditions: FGF-2 25 ng/ml
Description: as §1

BAEC [5] = assay: FGF-2 invasion in Matrigel; format: cell-based, bovine; conditions: FGF-2 treated
Description: The effect of the test compounds on cell invasion was investigated using a Transwell Boyden chamber system coated with reconstituted growth factor-depleted Matrigel. […] Representative photomicrographs for the effect of compound 1 are shown (Figure 7B).
Figure 7 The effect of compounds 1 (AI) and 2 (AII) on BAEC invasion into a Matrigel layer was studied using the chemoinvasion assay described below. Cells (1.7 × 10^4) were added to the Matrigel coated upper Boyden chamber and the compounds with or without FGF-2 added to the lower chamber. Cell invasion was measured after 24 h and assessed as described below. […] Results are the mean of three experiments. (B) Representative photomicrographs are shown for the effect of compound 1 on BAEC (original magnification × 20).
The procedure described above was repeated and wells having a uniform network of tubes were used to assess invasion into a second layer of Matrigel. Matrigel (100 μl), with and without the test compounds was added to the cells and allowed to polymerise (1 h at 37°C). FCS (15%) was added and the cells incubated for 24–72 h when tube growth into the upper layer was measured as described above.

HDMEC [6] = assay: FGF-2 invasion in Matrigel; format: cell-based, human; conditions: FGF-2 treated
[7] = test system: chick chorioallantoic membrane; assay: Chick chorioallantoic membrane (CAM) assay; format: in vivo; conditions: FGF-2 (25 ng) alone
Description: The angiogenic activity of test compounds was determined using the semi-quantitative chick chorioallantoic assay (CAM) as described previously. To expose the CAM a window was created in the shells of 4 day-old chicken eggs. […] […] This approach enabled calculation of an accumulated response in each group. To photograph the membrane, 2 cm^3 of a 50% emulsion of aqueous paraffin oil containing 2% Tween-80 was injected at the site of application and photographed using a Leitz dissecting microscope. Each experiment was performed five times and statistical significance was determined by the Mann-Whitney U test and the data is expressed as a median value (m).

phospho-ERK1/2 in BAEC = assay: Western blot of ERK1/2 phosphorylation; format: cell-based, bovine; conditions: FGF-2 addition
Description: Figure 9 (A) Western blots of p-ERK-1 and -2 were performed on BAEC treated with compound 1 as described below. (B) The bar charts show relative protein expression compared to the control given an arbitrary value of 1.0. All experiments were performed at least twice and a representative example is shown. Lane 1 control, lane 2 FGF-2 (25 ng/ml), lane 3 compound 1 ([…]), lane 4 compound 1 (14.3 μM) + FGF-2, lane 5 compound 1 (28.6 μM), lane 6 compound 1 (28.6 μM) + FGF-2.
The method is described in detail elsewhere. In brief, cells were lysed in RIPA buffer, protein concentration determined using the Biorad assay, and approximately 20 μg aliquots separated by 12% SDS-PAGE, electroblotted onto nitrocellulose filters (Hoefer, San Francisco, Ca, USA), blocked overnight with 1% BSA in TBS-Tween and incubated for 4 h at RT with characterised antibodies to phosphor-ERK1/2 (AutogenBioclear, mouse monoclonal, 1:1000). α-Actin (Sigma, UK; 1:1000) was used as a loading control. Filters were washed in TBS-Tween and stained with antibodies to peroxidase-conjugated secondary antibody. Proteins were detected with the ECL system (Amersham, UK). Protein expression was estimated spectrophotometrically from band intensity. Results are semi-quantitative and given a numerical value compared to the weakest observed band assigned an arbitrary value of 1.0. […]

human umbilical vein ECs = test system: human umbilical vein ECs; parameters: method as in PMID 11092574; conditions: cited from earlier work

CN[C@@H]1C[C@H]2O[C@@](C)([C@@H]1OC)n1c3ccccc3c3c4c(c5c6ccccc6n2c5c31)C(=O)NC4 [staurosporine, reference compound]
Cytotoxic effect (BAEC [1]): significant cytotoxicity
Cytotoxic effect (HDMEC [2]): significant cytotoxicity

FGF-2: fibroblast growth factor-2, pro-angiogenic growth factor used as stimulus
Increase in differentiation into capillary-like structures (BAEC [3]): approximately 4.0 fold
Increase in differentiation into capillary-like structures (HDMEC [4]): approximately 4.0 fold
Increase in migration into a second layer of Matrigel (BAEC [5]): 3.2 fold
Increase in migration into a second layer of Matrigel (HDMEC [6]): 3.0 fold
Degree of angiogenesis (m), median score [7]: 3
Increase in ERK1/2 phosphorylation compared to the control (phospho-ERK1/2 in BAEC): 50%

Oc1ccc(/C=C/c2cc(O)cc(O)c2)cc1 [resveratrol]
Concentrations inhibiting differentiation into capillary-like structures (human umbilical vein ECs): 0.1 to 1 mM
